The target in assay [1] is Activin receptor type-1-like (Homo sapiens) (UniProt P37023). The assay can be described thus: Selectivity interaction (LanthaScreen Eu Kinase Binding Assay) EUB0001632a ACVRL1. The settings on record: at 10 µM.
In assay [2] the target is Ribosomal protein S6 kinase alpha-5 (Homo sapiens) (UniProt O75582). The settings on record: at 10 µM.
The target of assay [3] is STE20-like serine/threonine-protein kinase (Homo sapiens, UniProt Q9H2G2). The assay can be described thus: Selectivity interaction (ActivX KiNativ screen (kinase selectivity in THP-1 cell lysates)) EUB0000639a SLK. It is filed as subcellular. As to conditions: lysate, at 0.2 µM.
Chain of STE20-like serine/threonine-protein kinase (Q9H2G2 whole entry, looked up): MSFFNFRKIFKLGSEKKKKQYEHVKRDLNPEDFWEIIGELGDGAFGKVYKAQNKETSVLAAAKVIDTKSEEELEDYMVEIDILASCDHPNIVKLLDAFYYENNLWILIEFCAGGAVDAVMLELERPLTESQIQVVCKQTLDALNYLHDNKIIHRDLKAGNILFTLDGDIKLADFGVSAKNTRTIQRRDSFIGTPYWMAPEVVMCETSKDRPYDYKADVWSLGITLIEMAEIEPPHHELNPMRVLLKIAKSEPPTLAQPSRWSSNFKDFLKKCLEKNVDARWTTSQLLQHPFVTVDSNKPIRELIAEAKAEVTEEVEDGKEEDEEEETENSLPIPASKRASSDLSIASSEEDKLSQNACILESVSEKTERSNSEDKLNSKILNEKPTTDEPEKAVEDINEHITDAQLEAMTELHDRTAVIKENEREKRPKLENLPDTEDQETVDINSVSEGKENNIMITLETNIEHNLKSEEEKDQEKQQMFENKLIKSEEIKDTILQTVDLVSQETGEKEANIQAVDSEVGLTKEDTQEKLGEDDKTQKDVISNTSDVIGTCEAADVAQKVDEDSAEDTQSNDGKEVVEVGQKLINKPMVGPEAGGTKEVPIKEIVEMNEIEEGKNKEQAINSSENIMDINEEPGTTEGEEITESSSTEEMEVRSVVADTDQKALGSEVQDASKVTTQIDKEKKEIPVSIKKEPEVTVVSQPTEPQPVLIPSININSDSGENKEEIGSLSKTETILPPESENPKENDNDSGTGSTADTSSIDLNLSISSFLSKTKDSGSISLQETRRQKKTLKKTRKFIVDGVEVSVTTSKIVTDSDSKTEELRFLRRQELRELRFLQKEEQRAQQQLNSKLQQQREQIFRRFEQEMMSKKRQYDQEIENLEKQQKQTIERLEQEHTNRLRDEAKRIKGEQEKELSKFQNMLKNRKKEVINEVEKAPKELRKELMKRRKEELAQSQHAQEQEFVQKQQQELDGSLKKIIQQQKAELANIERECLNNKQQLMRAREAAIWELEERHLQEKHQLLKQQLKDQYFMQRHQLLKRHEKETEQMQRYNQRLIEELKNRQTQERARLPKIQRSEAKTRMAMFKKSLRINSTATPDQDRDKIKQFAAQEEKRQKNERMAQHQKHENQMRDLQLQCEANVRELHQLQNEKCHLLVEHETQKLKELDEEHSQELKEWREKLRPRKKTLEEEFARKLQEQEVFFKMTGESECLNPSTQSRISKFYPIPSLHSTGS
The target in assay [4] is Ribosomal protein S6 kinase alpha-3 (Homo sapiens, UniProt P51812). In words: Selectivity interaction (ActivX KiNativ screen (kinase selectivity in THP-1 cell lysates)) EUB0000639a RPS6KA3. The class given is subcellular. As to conditions: lysate, at 5 µM.
Chain of Ribosomal protein S6 kinase alpha-3 (P51812 whole entry): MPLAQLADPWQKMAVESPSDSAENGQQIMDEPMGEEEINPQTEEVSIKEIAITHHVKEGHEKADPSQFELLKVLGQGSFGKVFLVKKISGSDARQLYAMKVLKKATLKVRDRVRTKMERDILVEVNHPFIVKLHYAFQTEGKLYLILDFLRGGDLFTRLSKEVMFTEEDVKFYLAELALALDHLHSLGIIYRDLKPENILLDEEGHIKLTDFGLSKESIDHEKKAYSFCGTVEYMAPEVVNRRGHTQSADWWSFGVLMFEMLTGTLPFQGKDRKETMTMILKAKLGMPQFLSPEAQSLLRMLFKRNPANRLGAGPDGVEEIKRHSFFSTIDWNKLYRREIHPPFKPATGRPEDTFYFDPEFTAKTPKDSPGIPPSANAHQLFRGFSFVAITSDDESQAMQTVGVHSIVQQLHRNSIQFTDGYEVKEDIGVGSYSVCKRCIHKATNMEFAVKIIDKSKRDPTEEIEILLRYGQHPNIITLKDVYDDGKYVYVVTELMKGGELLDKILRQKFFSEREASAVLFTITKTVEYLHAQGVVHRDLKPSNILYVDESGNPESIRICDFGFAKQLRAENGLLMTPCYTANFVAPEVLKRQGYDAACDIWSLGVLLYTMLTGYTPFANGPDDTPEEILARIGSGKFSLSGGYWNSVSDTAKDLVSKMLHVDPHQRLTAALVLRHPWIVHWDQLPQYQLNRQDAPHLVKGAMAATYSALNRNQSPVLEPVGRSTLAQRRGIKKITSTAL
Assay [5] concerns the target Protein arginine N-methyltransferase 3 (Homo sapiens, UniProt O60678). As to conditions: at 1 µM.
Assay [6] addresses T1, Myosin-IIIb (Homo sapiens) (UniProt Q8WXR4).
T1 sequence (whole entry): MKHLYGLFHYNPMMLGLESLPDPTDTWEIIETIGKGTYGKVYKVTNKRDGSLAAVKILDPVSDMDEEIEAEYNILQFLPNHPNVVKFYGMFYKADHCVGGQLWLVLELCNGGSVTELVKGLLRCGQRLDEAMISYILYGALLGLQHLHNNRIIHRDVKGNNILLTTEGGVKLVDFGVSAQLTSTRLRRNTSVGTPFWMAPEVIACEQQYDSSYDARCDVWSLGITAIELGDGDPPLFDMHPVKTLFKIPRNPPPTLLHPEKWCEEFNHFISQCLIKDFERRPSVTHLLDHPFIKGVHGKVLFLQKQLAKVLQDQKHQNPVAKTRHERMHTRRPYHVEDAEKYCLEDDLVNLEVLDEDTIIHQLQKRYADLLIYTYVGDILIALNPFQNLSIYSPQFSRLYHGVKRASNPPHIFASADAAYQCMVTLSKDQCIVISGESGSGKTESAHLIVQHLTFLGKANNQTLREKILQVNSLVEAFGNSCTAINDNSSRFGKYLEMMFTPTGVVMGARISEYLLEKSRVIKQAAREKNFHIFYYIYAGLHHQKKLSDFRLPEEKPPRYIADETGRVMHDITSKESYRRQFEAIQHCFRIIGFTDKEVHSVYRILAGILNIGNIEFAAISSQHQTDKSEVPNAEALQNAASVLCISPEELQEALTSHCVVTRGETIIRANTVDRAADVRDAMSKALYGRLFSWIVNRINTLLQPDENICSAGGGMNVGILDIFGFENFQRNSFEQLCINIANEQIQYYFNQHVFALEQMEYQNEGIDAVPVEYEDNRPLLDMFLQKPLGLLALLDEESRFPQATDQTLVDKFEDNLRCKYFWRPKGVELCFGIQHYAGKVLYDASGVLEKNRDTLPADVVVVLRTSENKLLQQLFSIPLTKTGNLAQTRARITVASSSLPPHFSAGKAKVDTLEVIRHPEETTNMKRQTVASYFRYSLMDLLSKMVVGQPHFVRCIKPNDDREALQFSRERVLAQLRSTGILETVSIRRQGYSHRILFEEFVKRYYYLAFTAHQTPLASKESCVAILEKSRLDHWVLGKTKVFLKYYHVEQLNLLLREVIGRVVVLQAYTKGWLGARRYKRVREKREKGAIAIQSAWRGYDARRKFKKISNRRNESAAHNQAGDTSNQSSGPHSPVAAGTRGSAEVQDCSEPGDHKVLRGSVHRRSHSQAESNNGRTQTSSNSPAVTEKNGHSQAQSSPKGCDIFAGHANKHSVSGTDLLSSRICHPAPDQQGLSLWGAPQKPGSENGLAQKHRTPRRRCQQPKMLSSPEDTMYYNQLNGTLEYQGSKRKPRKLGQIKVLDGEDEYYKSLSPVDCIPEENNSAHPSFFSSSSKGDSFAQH
In words: Selectivity interaction (KinomeScan (DiscoverX)) EUB0000045b MYO3B.

Assay [7] has as its target Phosphatidylinositol 4-kinase beta (Homo sapiens, UniProt Q9UBF8). The assay can be described thus: Selectivity interaction (KinomeScan (DiscoverX)) EUB0001049a PI4KB. As to conditions: at 1 µM.
Assay [8] concerns the target T2, Serine/threonine-protein kinase 17A (Homo sapiens) (UniProt Q9UEE5).
T2 sequence (whole entry): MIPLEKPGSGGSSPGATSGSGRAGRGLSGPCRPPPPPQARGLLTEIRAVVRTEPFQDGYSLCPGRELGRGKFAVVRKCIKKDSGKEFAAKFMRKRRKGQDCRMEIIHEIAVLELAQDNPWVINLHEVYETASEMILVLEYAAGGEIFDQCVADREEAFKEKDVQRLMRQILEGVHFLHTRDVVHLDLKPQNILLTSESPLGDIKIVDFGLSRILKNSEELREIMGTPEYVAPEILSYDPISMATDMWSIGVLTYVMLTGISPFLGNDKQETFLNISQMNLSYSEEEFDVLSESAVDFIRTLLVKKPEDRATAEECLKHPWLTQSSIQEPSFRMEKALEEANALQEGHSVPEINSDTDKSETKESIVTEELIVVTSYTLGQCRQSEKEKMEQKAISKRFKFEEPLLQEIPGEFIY
The assay can be described thus: Selectivity interaction (Upstate Kinase Profiler service (Millipore)) EUB0000056c STK17A. As to conditions: at 1 µM.

Assay [9] addresses Cyclin-dependent kinase 11B (Homo sapiens) (UniProt P21127). In words: Selectivity interaction (KinomeScan (DiscoverX)) EUB0000618a CDK11B. The settings on record: at 10 µM.

This is an account of results in ChEMBL document CHEMBL5465560, “Selectivity Literature for EUbOPEN Chemogenomic Library” (2024).

Chain of Ribosomal protein S6 kinase alpha-5 (Homo sapiens) (O75582 whole entry, looked up): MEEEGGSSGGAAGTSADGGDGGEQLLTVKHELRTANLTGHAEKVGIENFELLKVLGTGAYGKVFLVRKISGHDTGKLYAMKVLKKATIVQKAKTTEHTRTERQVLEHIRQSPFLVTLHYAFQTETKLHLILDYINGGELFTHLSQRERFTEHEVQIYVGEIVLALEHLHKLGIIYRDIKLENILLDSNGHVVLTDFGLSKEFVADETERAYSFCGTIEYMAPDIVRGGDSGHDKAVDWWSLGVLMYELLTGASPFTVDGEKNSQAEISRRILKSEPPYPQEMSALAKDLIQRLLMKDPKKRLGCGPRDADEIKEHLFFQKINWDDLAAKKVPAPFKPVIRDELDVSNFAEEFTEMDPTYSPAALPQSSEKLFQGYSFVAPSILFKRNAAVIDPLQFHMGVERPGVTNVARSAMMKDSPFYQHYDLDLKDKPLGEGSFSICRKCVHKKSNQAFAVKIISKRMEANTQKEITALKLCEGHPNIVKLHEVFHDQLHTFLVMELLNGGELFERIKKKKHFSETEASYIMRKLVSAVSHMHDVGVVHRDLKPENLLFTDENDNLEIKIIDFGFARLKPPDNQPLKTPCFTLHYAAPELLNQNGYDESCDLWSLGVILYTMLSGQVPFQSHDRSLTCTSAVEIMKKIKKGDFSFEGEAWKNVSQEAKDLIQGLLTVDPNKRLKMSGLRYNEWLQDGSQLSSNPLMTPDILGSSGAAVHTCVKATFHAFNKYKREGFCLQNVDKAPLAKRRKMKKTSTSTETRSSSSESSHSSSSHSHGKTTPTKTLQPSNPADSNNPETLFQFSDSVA
Chain of Cyclin-dependent kinase 11B (Homo sapiens) (P21127 whole entry): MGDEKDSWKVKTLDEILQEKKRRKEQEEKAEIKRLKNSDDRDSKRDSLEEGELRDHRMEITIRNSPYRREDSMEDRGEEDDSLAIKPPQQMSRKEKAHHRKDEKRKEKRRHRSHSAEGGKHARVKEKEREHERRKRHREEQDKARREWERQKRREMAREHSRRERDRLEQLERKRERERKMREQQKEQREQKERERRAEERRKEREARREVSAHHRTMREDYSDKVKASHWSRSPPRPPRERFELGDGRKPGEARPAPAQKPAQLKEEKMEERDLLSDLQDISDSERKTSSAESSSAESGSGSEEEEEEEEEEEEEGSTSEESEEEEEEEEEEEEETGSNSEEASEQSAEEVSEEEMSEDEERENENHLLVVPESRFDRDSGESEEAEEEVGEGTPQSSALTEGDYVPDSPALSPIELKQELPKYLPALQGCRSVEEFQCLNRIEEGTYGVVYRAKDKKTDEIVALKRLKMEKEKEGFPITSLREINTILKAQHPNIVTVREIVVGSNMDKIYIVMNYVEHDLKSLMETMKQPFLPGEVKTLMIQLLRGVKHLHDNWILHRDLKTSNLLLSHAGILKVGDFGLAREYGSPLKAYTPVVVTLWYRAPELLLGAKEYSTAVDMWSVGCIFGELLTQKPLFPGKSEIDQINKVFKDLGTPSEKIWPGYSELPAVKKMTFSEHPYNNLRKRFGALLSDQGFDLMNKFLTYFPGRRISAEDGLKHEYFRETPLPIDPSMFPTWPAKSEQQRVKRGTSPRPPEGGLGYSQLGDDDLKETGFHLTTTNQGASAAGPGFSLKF
Chain of Protein arginine N-methyltransferase 3 (O60678 2-531 limits assumed): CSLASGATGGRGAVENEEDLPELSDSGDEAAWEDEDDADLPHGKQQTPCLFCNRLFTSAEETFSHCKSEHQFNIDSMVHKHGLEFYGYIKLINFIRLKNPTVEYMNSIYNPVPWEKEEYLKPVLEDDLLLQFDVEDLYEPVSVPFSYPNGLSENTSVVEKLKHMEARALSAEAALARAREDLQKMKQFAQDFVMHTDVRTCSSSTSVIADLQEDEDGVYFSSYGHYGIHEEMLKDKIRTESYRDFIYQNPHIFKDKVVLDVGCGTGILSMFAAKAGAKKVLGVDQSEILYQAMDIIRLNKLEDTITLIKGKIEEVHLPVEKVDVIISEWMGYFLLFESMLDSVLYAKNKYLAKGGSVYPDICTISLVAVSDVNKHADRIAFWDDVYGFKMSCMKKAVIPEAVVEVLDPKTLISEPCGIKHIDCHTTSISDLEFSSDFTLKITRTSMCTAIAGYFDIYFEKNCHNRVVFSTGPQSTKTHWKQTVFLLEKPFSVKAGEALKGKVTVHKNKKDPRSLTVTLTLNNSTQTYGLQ
Chain of Activin receptor type-1-like (Homo sapiens) (P37023 whole entry): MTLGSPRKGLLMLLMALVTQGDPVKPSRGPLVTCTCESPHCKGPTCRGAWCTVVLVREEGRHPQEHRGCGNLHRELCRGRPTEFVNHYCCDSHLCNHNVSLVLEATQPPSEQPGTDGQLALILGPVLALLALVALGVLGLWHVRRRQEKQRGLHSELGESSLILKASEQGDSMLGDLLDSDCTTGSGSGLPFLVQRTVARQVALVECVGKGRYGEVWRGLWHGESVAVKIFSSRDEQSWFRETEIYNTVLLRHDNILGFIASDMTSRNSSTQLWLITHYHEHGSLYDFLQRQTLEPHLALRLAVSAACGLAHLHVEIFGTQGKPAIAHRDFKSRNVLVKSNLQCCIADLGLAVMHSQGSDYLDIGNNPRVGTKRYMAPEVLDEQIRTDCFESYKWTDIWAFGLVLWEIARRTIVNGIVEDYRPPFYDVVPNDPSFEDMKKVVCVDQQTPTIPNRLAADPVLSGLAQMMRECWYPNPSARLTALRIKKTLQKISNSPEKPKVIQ

Turning to `Cn1cc(-n2cnc3c(NCc4nc5cc(Cl)c(Cl)cc5[nH]4)nc(N4CCOCC4)nc32)cn1`, the % of inhibition in [1] was -13%.

`CCN(CC)CCCCNc1ncc2cc(-c3cc(OC)cc(OC)c3)c(NC(=O)NC(C)(C)C)nc2n1` showed a % of control in assay [2] of 100%.

Take `CC[C@@H]1[C@H](F)C(=O)N[C@@H]1COc1nccc2cc(C(N)=O)c(OC)cc12` [ZIMLOVISERTIB]: the % of inhibition in [3] is -1.2%; in [4], 1.6%. In assay [5], `CNCCN1CCC(c2cc(CN(C)C(=O)c3cccc(Oc4ccccc4)c3)ccn2)CC1` showed a % activity of over 90%. In the case of `C=CC(=O)Nc1cc(-n2c(=O)ccc3cnc4ccc(-c5ccc(NS(C)(=O)=O)cc5)cc4c32)ccc1C`, the % of control in assay [6] (at 1 µM) came out at 92%; in assay [6] (at 10 µM) it was 100%. Regarding `COc1cc(Nc2nc(C)cc(-c3cnn4nc(OC)ccc34)n2)cc(C(F)(F)F)c1`, in assay [7], the % of control was 85%.

As for `Cc1ccc(-c2ccc3c(ccc4sc5c(c43)NC[C@@H](C)NC5=O)n2)cn1`, the % of inhibition in assay [8] amounted to 88%. For `O[C@H]1CC[C@H](Nc2ncc3nc(Nc4c(F)cc(F)cc4F)n([C@H]4CCOC4)c3n2)CC1`, the % of control in assay [9] amounted to 91%.
